These results are taken from US10828301B2, “2,4-pyrimidinediamine compounds and their uses” (Rigel Pharmaceuticals, Inc, priority 2002, dated 2020).

Data set [1] has as its system IgE-induced degranulation of tissue mast cells. Description: Mouse model of passive cutaneous anaphylaxis (PCA). The data set is classed as in vivo. The protocol: This model provides a direct measure of IgE-induced degranulation of tissue mast cells. In this model, IgE primed animals are exposed to an allergen challenge, and the change in permeability of dermal vasculature that results from histamine release from mast cells is measured by change in the amount of dye leakage into surrounding tissue. Inhibition of mediator release by compounds that modulate mast cell degranulation is easily measured by extracting the dye from the tissue.
In the PCA assay mice are passively sensitized by intradermal injection with anti-dinitrophenol (DNP) IgE antibodies (Day −1). At predetermined times animals are treated with the test agent (Day 0). The modulatory effect of the agent on cutaneous mast cell degranulation is measured following intravenous injection of DNP conjugated to human serum albumin (HSA-DNP), together with Evans blue dye. The resulting cross-linking of the IgE receptor and subsequent mast cell degranulation-induced increase in vascular permeability is determined by measuring the amount of dye extravasation into the tissue. Dye is extracted from the tissue by formamide, and the absorbance of this extract is read at 620 nm.

The subject of data set [2] is proteins downstream of Syk kinase and LYN kinase in activated CHMC cells. Description: Phosphorylation of proteins in the FcεRI signal transduction cascade in activated CHMC cells. The class given is cell-based, human. Conditions: FIG. 10.
The nature of data set [3]: Mouse model of allergic asthma (ovalbumin). The data set is classed as in vivo. An excerpt: Mice are sensitized to ovalbumin (chicken protein) in the presence of an adjuvant (Alum) by the intraperitoneal route on day 0 and day 7. One week later, mice are challenged intranasally with ovalbumin on Days 14, 15 and 16 (more stringent model) or on Day 14 (less stringent model). This sensitization and challenge regimen leads to airway hyperresponsiveness and inflammation in the lungs, which are two dominant characteristics of human allergic asthma. In the mouse model, the in vivo airway responses are measured using a whole body plethysmograph which determines the PENH (enhanced Pause, Buxco Electronics). The PENH is a dimensionless value comprised of the peak inspiratory flow (PIF), peak expiratory flow (PEF), time of inspiration, time of expiration and relaxation time, and is considered a validated parameter of airway responsiveness. Responses to allergen challenge (OVA) are compared with animals challenged with saline only. Twenty-four hours after challenge, mice are exposed to increasing doses of methacholine (muscarinic receptor agonist) which results in smooth muscle contraction. […] In addition, a cellular infiltrate in the airway is observed in ovalbumin challenged mice when compared with the saline challenged mice. This cellular infiltrate is mainly characterized by eosinophils, but a smaller influx of neutrophils and mononuclear cells is also present.
The use of this model for the evaluation of small molecule inhibitors of mast cell degranulation has been validated is several ways. First, using mast cell deficient mice (W/W^v) it has been shown that the ovalbumin-induced responses are dependent upon the presence of mast cells.

Data set [4] relates to proteins downstream of Syk kinase in activated BMMC cells. Nature of the data set: Phosphorylation of proteins in the IgE receptor signal transduction cascade in activated BMMC cells. The data set is classed as cell-based, mouse. The settings on record: varying concentrations, FIG. 7.
For data set [5], the system named is basophils in whole human peripheral blood. Description: Basophil ionomycin activation: histamine release assay. The class given is cell-based. Here is the method:
Assays for ionomycin-induced basophil cell degranulation were carried out as described for the Basophil IgE or Dustmite Activation Assay (Section 6.4.6, supra), with the exception that following incubation with compound, cells were stimulated with 20 μl of 2 μM ionomycin.

A further data set deals with Syk kinase (Homo sapiens (Human), UniProt P43405). Description: Isolated Syk kinase biochemical assay (phosphorylation of a peptide or endogenous substrate). The settings on record: increasing concentrations, FIG. 8.
Data set [6] can be described thus: in vitro chromosomal aberration assay. The data set is classed as cell-based.
Data set [7] deals with cultured human mast cells (CHMC). Description: CHMC low cell density IgE activation: tryptase and LTC4 assays. The data set is classed as cell-based. Conditions: Homo sapiens, Mast cell, Low Density CHMC, anti-IgE activation, tryptase readout; read-out: CHMC anti-IgE Tryptase. Summed up: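 Cultured human mast cells at low density (1000-1500 per well) rested 1 h at 37° C, then stimulated with anti-IgE for 30 min at 37° C. Supernatant tryptase measured with fluorogenic substrate (30 min, room temperature); LTC4 quantified by ELISA on diluted supernatant.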

For data set [8] the test system is unchanged. Nature of the data set: CHMC high cell density IgE activation: degranulation (hexos, tryptase, histamine), leukotriene (LTC4) and cytokine (TNFalpha, IL-13) assays. The class given is cell-based. The settings on record: anti-IgE activation. Here is the method:
After sensitizing, cells are counted, pelleted (1000 rpm, 5-10 minutes), and resuspended at 1-2×10^6 cells/ml in MT buffer. Add 100 ul of cell suspension to each well and 100 ul of compound dilutions. The final vehicle concentration is 0.5% DMSO. Incubate at 37° C. (5% CO2) for 1 hour. After 1 hour of compound treatment, stimulate cells with 6× anti-IgE. Mix wells with the cells and allow plates to incubate at 37° C. (5% CO2) for one hour. After 1 hour incubation, pellet cells (10 minutes, 1000 RPM) and collect 200 ul per well of the supernatant, being careful not to disturb pellet. Place the supernatant plate on ice. During the 7-hour step (see next) perform tryptase assay on supernatant that had been diluted 1:500. Resuspend cell pellet in 240 ul of CM media containing 0.5% DMSO and corresponding concentration of compound. Incubate CHMC cells for 7 hours at 37° C. (5% CO2). After incubation, pellet cells (1000 RPM, 10 minutes) and collect 225 ul per well and place in −80° C. until ready to perform ELISAS. ELISAS are performed on appropriately diluted samples (determined empirically for each donor cell population so that the sample measurement falls within the standard curve) following the supplier's instructions.

For data set [9] the test system is unchanged. Description: CHMC low cell density ionomycin activation: tryptase assay. The data set is classed as cell-based. The settings on record: Homo sapiens, Mast cell, Low Density CHMC, ionomycin activation, tryptase readout; read-out: CHMC Ionomycin Tryptase.
The subject of the next data set is Jurkat cells. Description: Jurkat toxicity: Cell Titer Glo assay. The class given is cell-based. The settings on record: Homo sapiens, 18 hours. Here is the method:
Seed 50 μl cells (1×10^6/ml) into each well containing 50 μl compound. […] Shake plates for 1 minute to mix cells and compound. Incubate plates at 37° C. […] Next day, harvest 50 μl cells from each well, add to 50 μl Cell Titer Glo reagent ([…]). Shake plates for 1 minute. Read on luminometer.

Another data set deals with B-cell line BJAB. Nature of the data set: BJAB toxicity: Cell Titer Glo assay. Conditions: Homo sapiens, 18 hours. The data set is classed as cell-based. The protocol: Seed 50 μl cells (1×10^6/ml) into each well containing 50 μl compound. The final vehicle concentration is 0.5% DMSO, 1.5% MeOH. Shake plates for 1 minute to mix cells and compound. Incubate plates at 37° C. (5% CO2) for 18 hours. Next day, harvest 50 μl cells from each well, add to 50 μl Cell Titer Glo reagent ([…]). Shake plates for 1 minute. Read on luminometer.

Data set [10] has as its system basophils in whole human peripheral blood. Nature of the data set: Basophil IgE activation: histamine release assay. The class given is cell-based. The settings on record: Homo sapiens, anti-IgE activation. Here is the method: (§1) The basophil activation assay was carried out using whole human peripheral blood from donors allergic to dust mites with the majority of the red blood cells removed by dextran sedimentation. Human peripheral blood was mixed 1:1 with 3% dextran T500 and RBCs were allowed to settle for 20-25 min. The upper fraction was diluted with 3 volumes of D-PBS and cells were spun down for 10 min at 1500 rpm, RT. Supernatant was aspirated and cells were washed in an equal volume MT-buffer. Finally, cells were resuspended in MT-buffer containing 0.5% DMSO in the original blood volume. 80 uL cells were mixed with 20 uL compound in the presence of 0.5% DMSO, in triplicate, in a V-bottom 96-well tissue culture plate. A dose range of 8 compound concentrations was tested resulting in a 10-point dose response curve including maximum (stimulated) and minimum (unstimulated) response. […] The cells were stimulated for 30 minutes at 37° C., 5% CO2. The plate was spun for 10 min at 1500 rpm at room temperature and 80 uL the supernatant was harvested for histamine content analysis using the histamine ELISA kit supplied by Immunotech. The ELISA was performed according to supplier's instructions.

The test system is the same in data set [11]. Description: Basophil dustmite activation: histamine release assay. Conditions: read-out: Basophils Dust mite Histmine IC50. The class given is cell-based. Here is the method:
as §1, with “The plate was spun for 10 min at 1500 rpm at room temperature and 80 uL the supernatant was harvested for histamine content analysis using the histamine ELISA kit supplied by Immunotech.” left out

The mark [12] stands for this setting: IL-13, read-out: CHMC high density IL-13.
Where [13] appears, read: LTC4, read-out: CHMC high density LTC4.
[14] abbreviates: TNF-alpha, read-out: CHMC high density TNF-alpha.
Where [15] appears, read: hexosaminidase release, read-out: CHMC high density hexos.
[16] abbreviates: histamine release, read-out: CHMC high density histamine.
Setting [17] is: tryptase release, read-out: CHMC high density tryptase.

Regarding `CNC(=O)COc1cccc(Nc2ncc(F)c(Nc3ccc4c(c3)NCCO4)n2)c1` [Compound R921219, N4-(1,4-Benzoxazin-6-yl)-5-fluoro-N2-[3-(N-methylamino)carbonylmethyleneoxyphenyl]-2,4-pyrimidinediamine], the “circulating exposure levels at which active” value in data set [1] (PCA assay) is on record as “approximately 10 μg/ml”. Besides, the “inhibition of the PCA response / FcεR-mediated vascular leakage (in words)” value in data set [1] (mouse, in vivo) is “dose-dependent inhibition”. In addition, the “phosphorylation of proteins downstream of Syk kinase in the FcεRI signal transduction cascade” value in data set [2] was “inhibit phosphorylation”. For the same compound, the “ovalbumin-induced airway hyperresponsiveness and cellular influx” value in data set [3] (less stringent protocol (one challenge, Day 14), subcutaneously 70 mg/kg in 67% PEG400/33% citrate buffer, 30 minutes prior to challenge) was “completely blocked the ovalbumin-induced airway hyperresponsiveness and cellular influx”. In addition, the “airway responses in a mouse model of allergic asthma” value in [3] (summary) is “efficacious in inhibiting the airway responses”. Moreover, the “phosphorylation of various proteins downstream of Syk kinase in the IgE receptor signal transduction cascade” value in data set [4] is “inhibit phosphorylation”. Besides, the IC50 in data set [5] is more than 10 µM. In addition, the “Syk kinase phosphorylation of an endogenous substrate (LAT) and a peptide substrate” value on Syk kinase is on record as “dose responsive inhibition”. In addition, the clastogenic potential entry in data set [6] was “not found to possess clastogenic potential”.
In the case of `Cc1cc(Nc2ncc(F)c(Nc3cccc(O)c3)n2)cc(Cl)c1O` [Compound R940233, N2-(3-Chloro-4-hydroxy-5-methylphenyl)-5-fluoro-N4-(3-hydroxyphenyl)-2,4-pyrimidinediamine], the IC50 in data set [7] was determined as 0.132 µM; in data set [8] (setting [12]) it was 1.78 µM; in [8] (setting [13]) it was 0.118 µM; in [8] (setting [14]) it was 2.25 µM; in data set [8] (setting [15]), 0.577 µM; in data set [8] (setting [16]), 0.586 µM. Further, the IC50 is 0.642 µM in data set [8] (setting [17]), more than 10 µM in data set [9], more than 4.33 µM with Jurkat cells and more than 4.33 µM with B-cell line BJAB.
For the compound `O=C(NCCO)c1cc2cc(Nc3ncc(F)c(Nc4cccc(O)c4)n3)ccc2o1` [Compound R926497, 5-Fluoro-N4-(3-hydroxyphenyl)-N2-[2-(N-2-hydroxyethylamino)carbonylbenzofuran-5-yl]-2,4-pyrimidinediamine], the IC50 in data set [10] was 0.27 µM; in data set [5] (Homo sapiens) it was more than 10 µM; in [7], 0.138 µM; in [8] (setting [12]), more than 10 µM; in data set [8] (setting [14]), 1.88 µM; in data set [8] (setting [15]) it was 1.11 µM. Besides, the IC50 in [8] (setting [16]) was 1.33 µM; in data set [8] (setting [17]) it was 1.23 µM; in data set [11], 0.205 µM; in data set [9] it was more than 10 µM.
As for `OCCOc1cccc(Nc2ncc(F)c(Nc3cccc(OCCO)c3)n2)c1` [Compound R935075, N2,N4-Bis[3-(2-hydroxyethoxy)phenyl]-5-fluoro-2,4-pyrimidinediamine], the IC50 in data set [7] is 0.93 µM; in [8] (setting [13]), less than 0.22 µM; in data set [8] (setting [14]), more than 2 µM; in [8] (setting [15]), 0.647 µM; in [8] (setting [17]) it was 1.21 µM; in [9], more than 10 µM. Moreover, the IC50 with Jurkat cells and with B-cell line BJAB was more than 4.33 µM in each case.
